Measurements as given in US20260062412A1, “NITROGEN-CONTAINING HETEROCYCLIC COMPOUND HAVING MYT1 INHIBITORY ACTIVITY” (CHUGAI SEIYAKU KABUSHIKI KAISHA, priority 2023, published 2026).

These molecules were tested against MYT1 protein (Homo sapiens (Human), UniProt Q99640) (assay: Test for binding to ATP binding site of MYT1 (Kinase Tracer 178 / Eu-Anti-GST antibody TR-FRET)). Details: ATP binding site of MYT1, 30 minutes at room temperature.
Method: The binding capacity of each compound to the ATP binding site of MYT1 Kinase protein was evaluated. 5× Kinase Buffer A (manufactured by Thermo Fisher Scientific Inc., PV3189) was diluted to 5 times with Milli-Q water, thereby preparing 1× Kinase Buffer. Using 1× Kinase Buffer, MYT1 protein (manufactured by Carna Biosciences, Inc.) was diluted to a concentration of 0.005 μM and Eu-Anti-GST Antibody was diluted to a concentration of 1 μM. […] To a 96 well-plate, 2.5 μL of a compound diluted with DMSO was added. […] The mixture was well mixed and then allowed to stand at room temperature for 30 minutes. Thereafter, fluorescence wavelengths of 665 nm and 615 nm generated by irradiation with excitation light of 340 nm were detected using Envision (manufactured by PerkinElmer). The proportion of Tracer bound to MYT1 protein was calculated for every condition by dividing the intensity at the fluorescence wavelength of 665 nm by the intensity at the fluorescence wavelength of 615 nm.

Sequence of MYT1 protein (Q99640 whole entry): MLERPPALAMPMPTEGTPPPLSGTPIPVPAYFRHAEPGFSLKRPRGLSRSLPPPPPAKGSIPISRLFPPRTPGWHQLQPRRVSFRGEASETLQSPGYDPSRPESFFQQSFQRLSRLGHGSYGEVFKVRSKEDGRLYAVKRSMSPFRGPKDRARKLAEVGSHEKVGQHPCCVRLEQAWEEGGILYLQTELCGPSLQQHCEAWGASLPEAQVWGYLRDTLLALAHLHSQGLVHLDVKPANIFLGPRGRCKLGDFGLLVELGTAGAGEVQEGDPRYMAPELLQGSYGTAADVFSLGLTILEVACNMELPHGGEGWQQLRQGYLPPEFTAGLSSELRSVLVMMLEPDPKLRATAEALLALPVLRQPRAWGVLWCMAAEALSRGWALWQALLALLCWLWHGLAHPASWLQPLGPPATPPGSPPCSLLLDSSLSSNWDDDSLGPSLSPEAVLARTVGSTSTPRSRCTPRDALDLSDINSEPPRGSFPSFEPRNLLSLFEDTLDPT

Compound	IC50 [nM]
CC(=O)c1ccc2[nH]c(=O)c(N)c(-c3ccc(Cl)c4[nH]ncc34)c2c1 [Compound A31, 6-Acetyl-3-amino-4-(7-chloro-1H-indazol-4-yl)-1H-quinolin-2-one]	7.6
CC(O)c1ccc2[nH]c(=O)c(N)c(-c3ccc(Cl)c4[nH]ncc34)c2c1 (stereo not shown) [Compound A32, 3-Amino-4-(7-chloro-1H-indazol-4-yl)-6-(1-hydroxyethyl)-1H-quinolin-2-one]	16
Nc1c(-c2ccc(Cl)c3[nH]ncc23)c2cc(C3CCNCC3)ccc2[nH]c1=O [Compound A33, 3-Amino-4-(7-chloro-1H-indazol-4-yl)-6-piperidin-4-yl-1H-quinolin-2-one; 2,2,2-trifluoroacetate]	13
CC(C)N1CCC(c2ccc3[nH]c(=O)c(N)c(-c4ccc(Cl)c5[nH]ncc45)c3c2)CC1 [Compound A34, 3-Amino-4-(7-chloro-1H-indazol-4-yl)-6-(1-propan-2-ylpiperidin-4-yl)-1H-quinolin-2-one]	26
Nc1c(-c2ccc(Cl)c3[nH]ncc23)c2cc(C3CCN(C4CCC4)CC3)ccc2[nH]c1=O [Compound A35, 3-Amino-4-(7-chloro-1H-indazol-4-yl)-6-(1-cyclobutylpiperidin-4-yl)-1H-quinolin-2-one]	19
Nc1c(-c2ccc(Cl)c3[nH]ncc23)c2cc(C3CCN(C4COC4)CC3)ccc2[nH]c1=O [Compound A36, 3-Amino-4-(7-chloro-1H-indazol-4-yl)-6-[1-(oxetane-3-yl)piperidin-4-yl]-1H-quinolin-2-one]	18
Nc1c(-c2ccc(Cl)c3[nH]ncc23)c2cc(C(=O)N3CCOCC3)ccc2[nH]c1=O [Compound A38, 3-Amino-4-(7-chloro-1H-indazol-4-yl)-6-(morpholine-4-carbonyl)-1H-quinolin-2-one]	20
Nc1c(-c2ccc(Cl)c3[nH]ncc23)c2ccc(Cl)cc2[nH]c1=O [Compound A40, 3-Amino-7-chloro-4-(7-chloro-1H-indazol-4-yl)-1H-quinolin-2-one]	8.6
COc1cccc(-c2c(N)c(=O)[nH]c3ccc(Cl)cc23)c1 [Compound A42, 3-Amino-6-chloro-4-(3-methoxyphenyl)-1H-quinolin-2-one]	450
Nc1c(-c2cccc3[nH]ncc23)c2cc(Cl)ccc2[nH]c1=O [Compound A43, 3-Amino-6-chloro-4-(1H-indazol-4-yl)-1H-quinolin-2-one]	48
Nc1c(-c2cccnc2)c2cc(Cl)ccc2[nH]c1=O [Compound A45, 3-Amino-6-chloro-4-pyridin-3-yl-1H-quinolin-2-one]	5000
Nc1cc(-c2c(N)c(=O)[nH]c3ccc(Cl)cc23)ccn1 [Compound A47, 3-Amino-4-(2-aminopyridin-4-yl)-6-chloro-1H-quinolin-2-one]	3300
Nc1c(-c2ccc3nc[nH]c3c2)c2cc(Cl)ccc2[nH]c1=O [Compound A48, 3-Amino-4-(3H-benzimidazol-5-yl)-6-chloro-1H-quinolin-2-one]	5300
Nc1c(-c2cccc(OC(F)F)c2)c2cc(Cl)ccc2[nH]c1=O [Compound A50, 3-Amino-6-chloro-4-[3-(difluoromethoxy)phenyl]-1H-quinolin-2-one]	5800
Nc1c(-c2cccc(C(F)F)c2)c2cc(Cl)ccc2[nH]c1=O [Compound A51, 3-Amino-6-chloro-4-[3-(difluoromethyl)phenyl]-1H-quinolin-2-one]	2700
Cn1ccc(-c2c(N)c(=O)[nH]c3ccc(Cl)cc23)cc1=O [Compound A52, 3-Amino-6-chloro-4-(1-methyl-2-oxopyridin-4-yl)-1H-quinolin-2-one]	4400
Cc1cc(-c2c(N)c(=O)[nH]c3ccc(Cl)cc23)c2cn[nH]c2c1 [Compound A55, 3-Amino-6-chloro-4-(6-methyl-1H-indazol-4-yl)-1H-quinolin-2-one]	480
Nc1c(-c2cc(Cl)cc3[nH]ncc23)c2cc(Cl)ccc2[nH]c1=O [Compound A58, 3-Amino-6-chloro-4-(6-chloro-1H-indazol-4-yl)-1H-quinolin-2-one]	360
Cc1n[nH]c2cccc(-c3c(N)c(=O)[nH]c4ccc(Cl)cc34)c12 [Compound A62, 3-Amino-6-chloro-4-(3-methyl-1H-indazol-4-yl)-1H-quinolin-2-one]	3900
Cc1ccc2[nH]ncc2c1-c1c(N)c(=O)[nH]c2ccc(Cl)cc12 [Compound A63, 3-Amino-6-chloro-4-(5-methyl-1H-indazol-4-yl)-1H-quinolin-2-one]	710
Nc1c(-c2cccc(O)c2)c2cc(C3CC3)ccc2[nH]c1=O [Compound A65, 3-Amino-6-cyclopropyl-4-(3-hydroxyphenyl)-1H-quinolin-2-one]	190
Nc1c(-c2cccc(O)c2)c2ccccc2[nH]c1=O [Compound A66, 3-Amino-4-(3-hydroxyphenyl)-1H-quinolin-2-one]	380
Nc1c(-c2c(F)ccc3[nH]ncc23)c2cc(Cl)ccc2[nH]c1=O [Compound A67, 3-Amino-6-chloro-4-(5-fluoro-1H-indazol-4-yl)-1H-quinolin-2-one]	130
Nc1nccc(-c2c(N)c(=O)[nH]c3ccc(Cl)cc23)n1 [Compound A69, 3-Amino-4-(2-aminopyrimidin-4-yl)-6-chloro-1H-quinolin-2-one]	2500
Nc1c(-c2ccccc2)c2ccccc2[nH]c1=O [Compound A70, 3-Amino-4-phenyl-1H-quinolin-2-one]	6200
Nc1c(N2CCCC(CO)C2)c2cc(Br)ccc2[nH]c1=O (stereo not shown) [Compound A71, 3-Amino-6-bromo-4-[3-(hydroxymethyl)piperidin-1-yl]-1H-quinolin-2-one 2,2,2-trifluoroacetate]	1400
Nc1c(-c2cccc(O)c2)c2cc(Br)c3ccccc3c2[nH]c1=O [Compound B4, 3-Amino-6-bromo-4-(3-hydroxyphenyl)-1H-benzo[h]quinolin-2-one]	27
Cc1cc2c(-c3cccc(O)c3)c(N)c(=O)[nH]c2c2ccccc12 [Compound B6, 3-Amino-4-(3-hydroxyphenyl)-6-methyl-1H-benzo[h]quinolin-2-one]	7
Nc1c(-c2ccc(F)c3[nH]ncc23)c2ccc3ccc(Cl)cc3c2[nH]c1=O [Compound B11, 3-Amino-9-chloro-4-(7-fluoro-1H-indazol-4-yl)-1H-benzo[h]quinolin-2-one]	30

More lines, now with the values ahead:

IC50 [nM]	Compound
29	N#Cc1cc2[nH]c(=O)c(N)c(-c3ccc(Cl)c4[nH]ncc34)c2cc1Cl [Compound A29, 3-Amino-6-chloro-4-(7-chloro-1H-indazol-4-yl)-2-oxo-1H-quinoline-7-carbonitrile]
5.6	Nc1c(-c2ccc(Cl)c3[nH]ncc23)c2cc(C(=O)NC3CC3)ccc2[nH]c1=O [Compound A37, 3-Amino-4-(7-chloro-1H-indazol-4-yl)-N-cyclopropyl-2-oxo-1H-quinoline-6-carboxamide]
23	CN1CC(c2ccc3[nH]c(=O)c(N)c(-c4ccc(Cl)c5[nH]ncc45)c3c2)C1 [Compound A39, 3-Amino-4-(7-chloro-1H-indazol-4-yl)-6-(1-methylazetidin-3-yl)-1H-quinolin-2-one]
5000	Nc1c(-c2ccncc2)c2cc(Cl)ccc2[nH]c1=O [Compound A44, 3-Amino-6-chloro-4-pyridin-4-yl-1H-quinolin-2-one]
5900	CS(=O)(=O)Nc1cccc(-c2c(N)c(=O)[nH]c3ccc(Cl)cc23)c1 [Compound A46, N-[3-(3-amino-6-chloro-2-oxo-1H-quinolin-4-yl)phenyl]methanesulfonamide]
790	Nc1c(-c2ccc3cn[nH]c3c2)c2cc(Cl)ccc2[nH]c1=O [Compound A49, 3-Amino-6-chloro-4-(1H-indazol-6-yl)-1H-quinolin-2-one]
980	Nc1c(-c2cccc3[nH]ccc23)c2cc(Cl)ccc2[nH]c1=O [Compound A53, 3-Amino-6-chloro-4-(1H-indol-4-yl)-1H-quinolin-2-one]
8000	Nc1c(-c2cc[nH]c(=O)c2)c2cc(Cl)ccc2[nH]c1=O [Compound A68, 3-Amino-6-chloro-4-(2-oxo-1H-pyridin-4-yl)-1H-quinolin-2-one]
96	Nc1c(-c2ccc(Cl)c3[nH]ncc23)c2cc(OCC3(F)CC3)c(F)cc2[nH]c1=O [Compound A72, 3-Amino-4-(7-chloro-1H-indazol-4-yl)-7-fluoro-6-[(1-fluorocyclopropyl)methoxy]-1H-quinolin-2-one]
5600	COc1cccc(-c2c(N)c(=O)[nH]c3c2ccc2ccccc23)c1 [Compound B1, 3-Amino-4-(3-methoxyphenyl)-1H-benzo[h]quinolin-2-one]
420	Nc1c(-c2cccc(O)c2)c2cc(-c3ccccc3)c3ccccc3c2[nH]c1=O [Compound B5, 3-Amino-4-(3-hydroxyphenyl)-6-phenyl-1H-benzo[h]quinolin-2-one]
12	Nc1c(-c2cccc(O)c2)c2cc(Cl)c3ccccc3c2[nH]c1=O [Compound B8, 3-Amino-6-chloro-4-(3-hydroxyphenyl)-1H-benzo[h]quinolin-2-one]
120	Nc1c(-c2ccc(F)c3[nH]ncc23)c2cc(I)c3ccc(Cl)cc3c2[nH]c1=O [Compound B9, 3-Amino-9-chloro-4-(7-fluoro-1H-indazol-4-yl)-6-iodo-1H-benzo[h]quinolin-2-one]
36	Nc1c(-c2ccc(F)c3[nH]ncc23)c2cc(C3CC3)c3ccc(Cl)cc3c2[nH]c1=O [Compound B10, 3-Amino-9-chloro-6-cyclopropyl-4-(7-fluoro-1H-indazol-4-yl)-1H-benzo[h]quinolin-2-one]
